From patent US20030161787A1, “Method for the identification of agents and genes influencing cardiovascular function” (priority 2000, published 2003)

Columns and labels:
zebrafish larvae = experiment: Zebrafish larvae bathed in drug-containing medium; heart beat rate, contractility and blood flow monitored by microscope; type: in vivo; settings: for effect on heart beat rate, contractility and blood flow (cardiac performance) of untreated fish: applied alone to the surrounding medium, 4 d old larvae (FIG. 4); for effect on heart beat rate, contractility and blood flow: drug added to bathing medium, 2 d old larvae, 100 μM (FIG. 1) or increasing concentrations (FIG. 2)
Description: About 50 zebrafish larvae were incubated for 2-7 d at 22-28° C. in petri dishes filled with 30 ml embryo medium.
(§1) At the day of the experiment 10 larvae were transferred to small petri dishes filled with 10 ml embryo medium, 0.5 ml MESAB solution and 10 μl of the respective drug (or +10 μl of a second drug) added from a 1000-fold stock solution prepared with DMSO, these three components were previously mixed in 50 ml plastic tubes (controls only receive 10 μl DMSO).
(§2) At certain time points the contractility of the heart and blood flow was monitored, and the heart rate was determined by counting the heart beat with the aid of a stereo-microscope.

[1] = system: nifedipine-treated zebrafish; experiment: Reversal of nifedipine-induced effects on the heart of zebrafish larvae by a second drug; type: in vivo
Description: Similarely, putative anti-arrhythmic agents can be identified by studying heart beats of teleost larvae which were bathed prior to or simultaneous with the addition of the agents in a solution of an arrhythmia-inducing drug.
as §1, §2

[2] = system: three-day old zebrafish larvae; experiment: Induction of arrhythmic heart beat in three-day old zebrafish larvae by arrhythmia-inducing drugs; settings: low doses in medium; anaesthetized larvae, dissecting microscope
[3] = target: HERG (human ether-a-gogo-related gene) (Homo sapiens, UniProt Q12809); settings: cited from earlier work
Sequence of HERG (human ether-a-gogo-related gene) (Q12809 whole entry): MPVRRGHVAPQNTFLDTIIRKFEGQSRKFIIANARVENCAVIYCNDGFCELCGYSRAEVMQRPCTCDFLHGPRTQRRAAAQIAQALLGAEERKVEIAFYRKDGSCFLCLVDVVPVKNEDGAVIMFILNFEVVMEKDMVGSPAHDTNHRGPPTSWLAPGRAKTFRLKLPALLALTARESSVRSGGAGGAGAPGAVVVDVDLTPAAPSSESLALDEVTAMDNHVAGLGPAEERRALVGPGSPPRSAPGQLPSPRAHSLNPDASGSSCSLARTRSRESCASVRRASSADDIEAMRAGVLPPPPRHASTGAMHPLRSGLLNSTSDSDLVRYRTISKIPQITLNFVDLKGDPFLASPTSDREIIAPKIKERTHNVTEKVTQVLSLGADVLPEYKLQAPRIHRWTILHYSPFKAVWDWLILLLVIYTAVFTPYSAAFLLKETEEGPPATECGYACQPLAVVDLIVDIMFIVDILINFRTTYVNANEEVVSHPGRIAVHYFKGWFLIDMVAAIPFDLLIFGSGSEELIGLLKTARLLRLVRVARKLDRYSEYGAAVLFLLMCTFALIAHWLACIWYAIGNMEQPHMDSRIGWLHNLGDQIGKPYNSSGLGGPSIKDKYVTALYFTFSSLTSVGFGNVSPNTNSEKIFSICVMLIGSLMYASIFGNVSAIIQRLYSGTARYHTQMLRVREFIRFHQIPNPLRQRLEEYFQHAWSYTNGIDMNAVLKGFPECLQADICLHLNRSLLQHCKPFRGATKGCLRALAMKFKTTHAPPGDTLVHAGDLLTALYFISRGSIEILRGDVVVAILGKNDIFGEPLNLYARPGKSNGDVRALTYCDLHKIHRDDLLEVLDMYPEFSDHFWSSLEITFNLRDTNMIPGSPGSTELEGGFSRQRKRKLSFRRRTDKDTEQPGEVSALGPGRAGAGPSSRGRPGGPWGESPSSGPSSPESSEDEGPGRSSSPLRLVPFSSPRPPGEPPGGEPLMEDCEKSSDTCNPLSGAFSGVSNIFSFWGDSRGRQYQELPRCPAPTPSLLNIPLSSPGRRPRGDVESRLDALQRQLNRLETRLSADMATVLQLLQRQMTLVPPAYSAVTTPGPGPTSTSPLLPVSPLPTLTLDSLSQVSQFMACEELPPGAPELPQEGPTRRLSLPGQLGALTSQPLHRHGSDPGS

COC(=O)C1=C(C)NC(C)=C([N+](=O)[O-])C1c1ccccc1C(F)(F)F (racemic) [Bay K 8644, 1,4-dihydro-2,6-dimethyl-5-nitro-4-[2′-(trifluoromethyl)phenyl]-3-pyridinecarboxylic acid methyl ester]
effect on heart beat rate, contractility and blood flow (cardiac performance) of untreated fish (zebrafish larvae): nearly negligible effects
effect on heart beat rate, contractility and blood flow (cardiac performance) of untreated fish (zebrafish larvae; listed as (+/−)Bay K 8644): nearly no effect
re-animation of larvae with arrest of the heart beat ([1]; arrest induced by 50 μM nifedipine for 1 h, added to bathing solution, 3 d old larvae (FIG. 5)): re-animated within minutes
contractility of nifedipine-treated zebrafish ([1]; nifedipine-treated larvae (FIG. 3)): strong increase in contractility
blocking of the effects of nifedipine ([1]; simultaneous addition with nifedipine, 4 d old larvae (FIG. 3)): completely blockable

COc1ccc(CCN2CCC(Nc3nc4ccccc4n3Cc3ccc(F)cc3)CC2)cc1 [astemizole]
larvae with induced arrhythmic heart beat [2]: ~100 % of larvae

COc1cc(N)c(Cl)cc1C(=O)NC1CCN(CCCOc2ccc(F)cc2)CC1OC (stereo not shown) [cisapride]
block of HERG [3]: high affinity block
larvae with induced arrhythmic heart beat [2]: ~100 % of larvae

O=C(CCCN1CC=C(n2c(=O)[nH]c3ccccc32)CC1)c1ccc(F)cc1 [droperidol]
larvae with induced arrhythmic heart beat [2]: ~100 % of larvae

O=C(CCCN1CCC(O)(c2ccc(Cl)cc2)CC1)c1ccc(F)cc1 [haloperidol]
block of HERG [3]: high affinity block
larvae with induced arrhythmic heart beat [2]: ~100 % of larvae

O=c1[nH]c2ccccc2n1C1CCN(CCCC(c2ccc(F)cc2)c2ccc(F)cc2)CC1 [pimozide]
larvae with induced arrhythmic heart beat [2]: ~100 % of larvae

CC(C)NCC(O)COc1cccc2ccccc12 (stereo not shown) [propanolol]
effect on heart beat rate, contractility and blood flow (zebrafish larvae): decrease in heart beat rate, contractility and blood flow

CC(C)(C)c1ccc(C(O)CCCN2CCC(C(O)(c3ccccc3)c3ccccc3)CC2)cc1 (stereo not shown) [terfenadine]
larvae with induced arrhythmic heart beat [2]: ~100 % of larvae

CSc1ccc2c(c1)N(CCC1CCCCN1C)c1ccccc1S2 (stereo not shown) [thioridazine]
larvae with induced arrhythmic heart beat [2]: ~100 % of larvae

COc1ccc(CCN(C)CCCC(C#N)(c2ccc(OC)c(OC)c2)C(C)C)cc1OC (stereo not shown) [verapamil]
effect on heart beat rate, contractility and blood flow (zebrafish larvae): decrease in heart beat rate, contractility and blood flow
